Like-named read-outs stand apart in the source and are kept apart here.
Legend:
recombinant PRL-2 = molecular target: T1, recombinant PRL-2 (Homo sapiens, UniProt Q12974); test: In vitro phosphatase assay (DiFMUP hydrolysis), PRL-2; format: biochemical; conditions: for IC50: DiFMUP at KM, read-out: Calculated IC50, PRL-2 phosphatase activity; for % Phosphatase Activity (compared to DMSO) PRL-2: FDA-approved drug screen;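 for all read-outs here: PRL-2 activity read as DiFMUP hydrolysis after 20 min at room temperature with drug, enzyme first pre-reduced at 4 °C for 20 min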
T1 construct: 6xHis (N, cleaved yes); made in house; host or cells: E. coli One Shot BL21 Star
T1 sequence (Q12974 1-167): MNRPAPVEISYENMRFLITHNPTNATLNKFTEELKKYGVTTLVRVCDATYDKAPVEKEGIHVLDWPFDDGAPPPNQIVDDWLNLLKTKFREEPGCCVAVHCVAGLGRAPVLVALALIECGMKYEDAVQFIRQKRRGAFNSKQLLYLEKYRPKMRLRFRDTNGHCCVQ

HEK293T cells [1] = test: MTT viability assay; format: cell-based, human; conditions: drug doses 1 to 100 µM, 16 h, normalized to 1% DMSO
Description: Cells were seeded into duplicate wells of a 96 well plate at a density of 2 × 10^4 cells per well and allowed to recover for 24 h. Cells were then treated with drug or DMSO at the indicated concentrations for 16 h. Following drug treatment, 10 μL of 5 mg/ml MTT (Sigma, M5655) was added to each well and cells were incubated for 4 h. Finally, media were removed, and the dye was solubilized in 100 μL of 0.1 M HCl in isopropanol. Absorbance was measured at 570 nm and 690 nm with final absorbance measurements as 570–690 nm.

recombinant PRL-1 = molecular target: T2, recombinant PRL-1 (Homo sapiens, UniProt Q93096); test: In vitro phosphatase assay (DiFMUP hydrolysis), PRL-1; format: biochemical; conditions: for IC50: DiFMUP at KM, read-out: Calculated IC50, PRL-1 phosphatase activity; for % Phosphatase Activity (compared to DMSO) PRL-1: FDA-approved drug screen
T2 construct: 6xHis (N, cleaved yes); made in house; host or cells: E. coli One Shot BL21 Star
T2 sequence (Q93096 1-173): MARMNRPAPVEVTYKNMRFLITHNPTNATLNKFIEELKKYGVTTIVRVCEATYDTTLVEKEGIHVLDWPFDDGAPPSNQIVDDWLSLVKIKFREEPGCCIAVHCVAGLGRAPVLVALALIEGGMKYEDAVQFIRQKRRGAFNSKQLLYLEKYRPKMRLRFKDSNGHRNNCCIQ

recombinant PRL-3 = molecular target: T3, recombinant PRL-3 (Homo sapiens, UniProt O75365); test: In vitro phosphatase assay (DiFMUP hydrolysis), PRL-3; format: biochemical; conditions: for IC50: DiFMUP at KM, read-out: Calculated IC50, PRL-3 phosphatase activity; for % Phosphatase Activity (compared to DMSO) PRL-3: FDA-approved drug screen
T3 construct: 6xHis (N, cleaved yes); made in house; host or cells: E. coli One Shot BL21 Star
T3 sequence (O75365 whole entry): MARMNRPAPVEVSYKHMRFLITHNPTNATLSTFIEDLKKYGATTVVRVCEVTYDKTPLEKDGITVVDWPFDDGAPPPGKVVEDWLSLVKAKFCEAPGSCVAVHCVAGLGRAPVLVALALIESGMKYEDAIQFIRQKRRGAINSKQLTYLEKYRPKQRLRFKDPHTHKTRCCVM

HEK293T cells [2] = test: Scratch (migration) assay, HEK293T transfected with PRL-3 or empty vector; format: cell-based, human; conditions: HEK293T transfected with PRL-3, 24 h, compared to DMSO
Description: pENTR-PRL-3 (previously described[51]) was cloned into pLKO-CMV-puro using LR clonase (Thermofisher, 11,791,019) according to manufacturer’s directions. pLKO-CMV empty vector (EV) and pLKO-CMV:PRL-3 were transfected into HEK293T using Lipofectamine 3000 (ThermoFisher, L3000015) according to manufacturer’s protocol. Transfected cells were selected with 1 µg/mL puromycin in complete media to establish the cell line, then were maintained under 0.5 µg/mL puromycin in complete media. For PRL-3 knockdown, pLKO.1-scrambled shRNA and pLKO.1-PRL-3 shRNA[51] plasmids were transfected into HCT116 cells using Lipofectamine 3000 (Thermo Fisher, Cat # L3000015) according to the manufacturer’s directions. Cells were selected for 48 h in 1 µg/mL puromycin before use in assays.
Cells were seeded into duplicate wells of a 48 well plates at a density of 2 × 10^5 cells per well for HEK293T or 4 × 10^5 for HCT116 and SW480. Cells were recovered overnight and were scratched using a p20 pipette tip the following day. Compounds were added at the concentrations indicated. Images were obtained immediately after the scratch and after a 24 h incubation with the drug on an Evos FL inverted microscope (ThermoFisher). The area within the scratch was calculated using ImageJ. The area migrated was measured as the difference in wound area at 0 h and 24 h and the percent change in migration was calculated by dividing the difference in wound area of treatment by the difference in wound area of the control.

Row | % Phosphatase Activity (compared to DMSO) PRL-2 (recombinant PRL-2; activity compared to DMSO) [%] | % Phosphatase Activity (compared to DMSO) PRL-1 (recombinant PRL-1; activity compared to DMSO) [%] | % Phosphatase Activity (compared to DMSO) PRL-3 (recombinant PRL-3; activity compared to DMSO) [%] | % Phosphatase Activity (compared to DMSO) PRL-2 (recombinant PRL-2; compared to DMSO) [%] | % Phosphatase Activity (compared to DMSO) PRL-1 (recombinant PRL-1; compared to DMSO) [%] | % Phosphatase Activity (compared to DMSO) PRL-3 (recombinant PRL-3; compared to DMSO) [%] | Molecule | IC50 (recombinant PRL-2; 2.5 µM protein) [nM] | viability (MTT) (HEK293T cells [1]) | IC50 (recombinant PRL-1; 2.5 µM protein) [nM] | IC50 (recombinant PRL-3; 2.5 µM protein) [nM] | cellular migration in PRL-3 overexpressing cells (HEK293T cells [2]) | other results
1 | – | – | – | 26 | 16 | 10 | CC(=O)c1cc2c(o1)C(=O)c1ccccc1C2=O [Napabucasin, reference compound] | 1100 ± 300 | decreased viability | 400 ± 200 | 700 ± 100 | less significant effects on the migration of PRL-3 expressing cells | –
2 | – | – | – | 106 | 98 | 92 | O=C(NC[C@H]1CN(c2ccc(N3CCOCC3=O)cc2)C(=O)O1)c1ccc(Cl)s1 [Rivaroxaban] | – | – | – | – | – | –
3 | 90 | 104 | 88 | – | – | – | Cc1cn([C@H]2C=C[C@@H](CO)O2)c(=O)[nH]c1=O [Stavudine (d4T)] | – | – | – | – | – | –

Continued, molecule first:

Row | Molecule | % Phosphatase Activity (compared to DMSO) PRL-2 (recombinant PRL-2; activity compared to DMSO) [%] | % Phosphatase Activity (compared to DMSO) PRL-1 (recombinant PRL-1; activity compared to DMSO) [%] | % Phosphatase Activity (compared to DMSO) PRL-3 (recombinant PRL-3; activity compared to DMSO) [%] | % Phosphatase Activity (compared to DMSO) PRL-2 (recombinant PRL-2; compared to DMSO) [%] | % Phosphatase Activity (compared to DMSO) PRL-1 (recombinant PRL-1; compared to DMSO) [%] | % Phosphatase Activity (compared to DMSO) PRL-3 (recombinant PRL-3; compared to DMSO) [%] | IC50 (recombinant PRL-2; 2.5 µM protein) [nM] | viability (MTT) (HEK293T cells [1]) | IC50 (recombinant PRL-1; 2.5 µM protein) [nM] | IC50 (recombinant PRL-3; 2.5 µM protein) [nM] | cellular migration in PRL-3 overexpressing cells (HEK293T cells [2]) | other results
4 | COc1cc(C(=O)O)ccc1NC(=O)[C@@H]1N[C@@H](CC(C)(C)C)[C@](C#N)(c2ccc(Cl)cc2F)[C@H]1c1cccc(Cl)c1F [Idasanutlin, reference compound] | – | – | – | – | – | – | 16000 ± 2000 | decreased viability | 20000 ± 3000 | 13000 ± 400 | less significant effects on the migration of PRL-3 expressing cells | –
5 | COCCn1c2c([n+](Cc3cnccn3)c1C)C(=O)c1ccccc1C2=O [YM155, reference compound] | – | – | – | – | – | – | 700 ± 100 | decreased viability | 300 ± 100 | 300 ± 100 | less significant effects on the migration of PRL-3 expressing cells | –
6 | Vitamin B12 [reference compound] | -16 | 2.68 | -2 | – | – | – | – | no effect on the viability | – | – | – | IC50 (recombinant PRL-2; […] protein): 900 ± 200 nM; IC50 (recombinant PRL-1; […] protein): 700 ± 200 nM; IC50 (recombinant PRL-3; […] protein): 900 ± 100 nM
7 | Cc1cc(C(C#N)c2ccc(Cl)cc2)c(Cl)cc1NC(=O)c1cc(I)cc(I)c1O (centres unmarked) [Closantel, reference compound] | – | – | – | 17 | 16 | 40 | 14000 ± 5000 | increased MTT absorbance | 17000 ± 3000 | 11000 ± 500 | – | –
8 | COc1ccc(C[C@@H]2c3cc(OC)c(OC)cc3CC[N@+]2(C)CCC(=O)OCCCCCOC(=O)CC[N@@+]2(C)CCc3cc(OC)c(OC)cc3[C@H]2Cc2ccc(OC)c(OC)c2)cc1OC [Cisatracurium Besylate] | – | – | – | 103 | 99 | 79 | – | – | – | – | – | –
9 | CC[C@@H]([C@H](C)O)n1ncn(-c2ccc(N3CCN(c4ccc(OC[C@@H]5CO[C@@](Cn6cncn6)(c6ccc(F)cc6F)C5)cc4)CC3)cc2)c1=O [Posaconazole] | – | – | – | 99 | 89 | 73 | – | – | – | – | – | –
10 | CC1=C(/C=C/C(C)=C/C=C/C(C)=C/C(=O)O)C(C)(C)CCC1 [Tretinoin] | 77 | 78 | 46 | – | – | – | – | – | – | – | – | –
